Data as given in patent US20080226571A1, “Compositions and methods to effect enhanced photoprotection against UV A and UV B induced damage of human skin” (priority 2007, published 2008).
Marks after values point to notes of the source that are not given here.

System: B16F1 mouse melanoma cells
Experiment: Intracellular melanin enhancement
Type: cell-based
Conditions: for Folds of Melanin Enhancement compared to control: Table E; for melanin enhancement activity, comparison in words: Tables C and E
Description: B16F1 mouse melanoma cells are treated with varying concentrations of actives I, II and III and other optional actives or combinations thereof at a time interval of 3 days for nine consecutive days. The intracellular melanin in both the controls and test B16F1 mouse melanoma cells is extracted by 1 N NaOH and subjected to a heat treatment at 100° C. The extracted melanin is estimated at 405 nm in a Fluostar Optima Microplate Reader.

Compound	Folds of Melanin Enhancement compared to control (0.25 μg/ml)	Folds of Melanin Enhancement compared to control (0.5 μg/ml)	Folds of Melanin Enhancement compared to control (1 μg/ml)	Folds of Melanin Enhancement compared to control (2 μg/ml)	Folds of Melanin Enhancement compared to control (3 μg/ml)	Folds of Melanin Enhancement compared to control (5 μg/ml)	Folds of Melanin Enhancement compared to control (12 μg/ml)	melanin enhancement activity, comparison in words
C=C[C@@]1(C)CC(=O)[C@]2(O)[C@@]3(C)CCCC(C)(C)[C@@H]3[C@H](O)[C@H](OC(C)=O)[C@@]2(C)O1 [7β-Acetoxy-6β,9α-dihydroxy-8,13-epoxy-labd-14-en-11-one]	1 Folds	1.1 Folds	1.5* Folds	1.8* Folds	2.2* Folds	2.8* Folds	3.2* Folds	comparable to that of active 3
C=CC1(C)CC(=O)C2C3(C)CCCC(C)(C)C3C(O)C(OC(C)=O)C2(C)O1 (stereo not drawn) [7β-Acetoxy-6β-hydroxy-8,13-epoxy-labd-14-en-11-one]	1.1 Folds	1.13 Folds	1.4* Folds	2* Folds	2.1* Folds	2.2* Folds	3* Folds	comparable to that of active 3
COc1c2ccoc2cc2oc(=O)ccc12 [Active 5-MOP, 5-methoxy psoralen]	1.1 Folds	1.15 Folds	1.5* Folds	toxic	toxic	toxic	toxic	comparable to active III but inferior to active I
COc1c2occc2cc2ccc(=O)oc12 [Active 8-MOP, 8-Methoxy psoralen]	1.12 Folds	1.25 Folds	1.4* Folds	toxic	toxic	toxic	toxic	comparable to active III but inferior to active I
CC1(C)[C@@H](O[C@H]2O[C@H](C(=O)O)[C@@H](O)[C@H](O)[C@H]2O[C@@H]2O[C@H](C(=O)O)[C@@H](O)[C@H](O)[C@H]2O)CC[C@]2(C)[C@H]3C(=O)C=C4[C@@H]5C[C@@](C)(C(=O)O)CC[C@]5(C)CC[C@@]4(C)[C@]3(C)CC[C@@H]12 [Glycyrrhizin]	1.82* Folds	2.25* Folds	2.58* Folds	2.76* Folds	2.88* Folds	2.92* Folds	2.95* Folds	comparable to active III but inferior to active I
C/C=C1\C(=O)C[C@H]2[C@@H]3CCC4=CC(=O)CC[C@]4(C)[C@H]3CC[C@]12C [Gugulsterone, Guggulsterone]	1.15 Folds	1.25 Folds	1.28 Folds	1.38 Folds	2.38* Folds	2.45* Folds	2.5* Folds	comparable to active III but inferior to active I
CC(C)=CCOc1c2occc2cc2ccc(=O)oc12 [Imperatorin]	1.08 Folds	1.25 Folds	1.58* Folds	1.78* Folds	2.58* Folds	toxic	toxic	comparable to active III but inferior to active I
